Key:
Assay in all cases: Test of herbicidal activities (greenhouse pot method)
Type in all cases: in vivo
Conditions in all cases: single dose 300 g ai./h, treated before/after germination, 15 days later, greenhouse pot
Amaranthus retroflexus = system: Amaranthus retroflexus
Method: (§1) Garden soil was collected from regions where no pesticide is used and mixed uniformly with mountain soil and organic humus soil at a volume ratio of 1:1:1.
(§2) Multiple flowerpots each having a diameter of 9.5 cm and a depth of 8 cm were filled with the soil mixture to 3/4 volume. After water was added to the soil and the soil was completely wet, seeds of three grass weeds and three broadleaf weeds were inserted into the flowerpots (10-15 seeds for each weed). After seeding, the seeds were covered with fine oil mixed with sand and having a thickness of 1-3 cm. After the soil absorbed enough water and became saturated, excess water at the bottom of the flowerpot was drained, and the seeds were placed in a greenhouse for growth.
(§3) The weeds were watered every day so as to keep relative humidity of the soil at approximately 80%, growing temperature of 15-30° C., and air humidity above 50%. As the grass weeds grew to a 2-leaf stage and the broadleaf weeds was in a leaf period, spraying operation […] was performed on the stems and leafs. Planting before germination was performed before spraying. Soil processing was performed before the seeds of the weeds emerged.
(§4) Six target weeds comprising three grass weeds: Echinochloa crusgalli, Digiatria sanguinalis, Setaria viridis, along with three broadleaf weeds: Brassica juncea, Amaranthus retroflexus, Chenopodium album were treated before/after germination using a so-called “greenhouse pot” method with a single dose. A treating dose was 300 g ai./h. The process was repeated three times, and a blank control was used.
(§5) A 3WPSHZ-500 type automatic spraying tower with a spraying area of 0.132 m^2, a spray volume of 10 mL, working pressure of 0.2 MPa, and a liquid volume of 40% of maximum was used. After treatment, the weeds were placed in a greenhouse at a temperature of 15-30° C. Reaction symptoms of the weeds were regularly observed, and 15 days later, five reaction levels were determined according to the following inhibition intervals: 90≦A≦100%; 80≦B<90%, 60≦C<80%; 50≦D<60%, E<50%.

Brassica juncea = system: Brassica juncea
Method: as §1, §2, §3, §4, §5

Chenopodium album = system: Chenopodium album
Method: as §1, §2, §3, §4, §5

Digiatria sanguinalis = system: Digiatria sanguinalis
Method: as §1, §2, §3, §4, §5

Echinochloa crusgalli = system: Echinochloa crusgalli
Method: as §1, §2, §3, §4, §5

Setaria viridis = system: Setaria viridis
Method: as §1, §2, §3, §4, §5

Row | Structure (SMILES) | Herbicidal activity Amaranthus retroflexus (inhibition level) (Amaranthus retroflexus) | Herbicidal activity Brassica juncea (inhibition level) (Brassica juncea) | Herbicidal activity Chenopodium album (inhibition level) (Chenopodium album) | Herbicidal activity Digiatria sanguinalis (inhibition level) (Digiatria sanguinalis) | Herbicidal activity Echinochloa crusgalli (inhibition level) (Echinochloa crusgalli) | Herbicidal activity Setaria viridis (inhibition level) (Setaria viridis)
1 | Cc1nn(-c2cc3nc(SCc4ccco4)sc3cc2F)c(=O)n1C(F)F [Compound 29] | C (60 ≦ C < 80%) | C (60 ≦ C < 80%) | B (80 ≦ B < 90%) | B (80 ≦ B < 90%) | C (60 ≦ C < 80%) | B (80 ≦ B < 90%)
2 | Cc1nn(-c2cc3nc(SCc4ccccc4)sc3cc2F)c(=O)n1C [Compound 30] | A (90 ≦ A ≦ 100%) | D (50 ≦ D < 60%) | C (60 ≦ C < 80%) | B (80 ≦ B < 90%) | E (E < 50%) | B (80 ≦ B < 90%)
3 | CSc1nc2cc(-n3nc(C)n(C)c3=O)c(F)cc2s1 [Compound 31] | A (90 ≦ A ≦ 100%) | B (80 ≦ B < 90%) | C (60 ≦ C < 80%) | A (90 ≦ A ≦ 100%) | B (80 ≦ B < 90%) | B (80 ≦ B < 90%)
4 | Cc1nn(-c2cc3nc(SCc4cccc(Cl)c4)sc3cc2F)c(=O)n1C [Compound 32] | A (90 ≦ A ≦ 100%) | B (80 ≦ B < 90%) | A (90 ≦ A ≦ 100%) | A (90 ≦ A ≦ 100%) | B (80 ≦ B < 90%) | C (60 ≦ C < 80%)
5 | CCCSc1nc2cc(-n3nc(C)n(C)c3=O)c(F)cc2s1 [Compound 33] | A (90 ≦ A ≦ 100%) | A (90 ≦ A ≦ 100%) | B (80 ≦ B < 90%) | A (90 ≦ A ≦ 100%) | B (80 ≦ B < 90%) | B (80 ≦ B < 90%)
6 | Cc1nn(-c2cc3nc(S(=O)(=O)Cc4ccccc4)sc3cc2F)c(=O)n1C [Compound 34] | B (80 ≦ B < 90%) | D (50 ≦ D < 60%) | C (60 ≦ C < 80%) | A (90 ≦ A ≦ 100%) | B (80 ≦ B < 90%) | A (90 ≦ A ≦ 100%)
7 | Cc1nn(-c2cc3nc(S(C)(=O)=O)sc3cc2F)c(=O)n1C [Compound 35] | B (80 ≦ B < 90%) | D (50 ≦ D < 60%) | C (60 ≦ C < 80%) | A (90 ≦ A ≦ 100%) | C (60 ≦ C < 80%) | A (90 ≦ A ≦ 100%)
8 | Cc1nn(-c2cc3nc(S(=O)(=O)Cc4cccc(Cl)c4)sc3cc2F)c(=O)n1C [Compound 36] | D (50 ≦ D < 60%) | C (60 ≦ C < 80%) | D (50 ≦ D < 60%) | C (60 ≦ C < 80%) | C (60 ≦ C < 80%) | D (50 ≦ D < 60%)
9 | Cc1nn(-c2cc3nc(S(=O)(=O)Cc4ccccc4)sc3cc2Cl)c(=O)n1C(F)F [Compound 37] | C (60 ≦ C < 80%) | D (50 ≦ D < 60%) | A (90 ≦ A ≦ 100%) | C (60 ≦ C < 80%) | D (50 ≦ D < 60%) | E (E < 50%)
10 | Cc1nn(-c2cc3nc(S(=O)(=O)Cc4c(F)cccc4F)sc3cc2Cl)c(=O)n1C(F)F [Compound 38] | C (60 ≦ C < 80%) | D (50 ≦ D < 60%) | C (60 ≦ C < 80%) | D (50 ≦ D < 60%) | C (60 ≦ C < 80%) | B (80 ≦ B < 90%)
11 | Cc1nn(-c2cc3nc(S(=O)(=O)Cc4cccc(Cl)c4)sc3cc2Cl)c(=O)n1C(F)F [Compound 40] | B (80 ≦ B < 90%) | B (80 ≦ B < 90%) | D (50 ≦ D < 60%) | C (60 ≦ C < 80%) | E (E < 50%) | C (60 ≦ C < 80%)
12 | Cc1nn(-c2cc3nc(S(=O)(=O)Cc4ccc(Cl)cc4)sc3cc2Cl)c(=O)n1C(F)F [Compound 41] | C (60 ≦ C < 80%) | C (60 ≦ C < 80%) | D (50 ≦ D < 60%) | B (80 ≦ B < 90%) | D (50 ≦ D < 60%) | C (60 ≦ C < 80%)
13 | Cc1nn(-c2cc3nc(S(=O)(=O)Cc4ccc(Br)cc4)sc3cc2Cl)c(=O)n1C(F)F [Compound 42] | A (90 ≦ A ≦ 100%) | C (60 ≦ C < 80%) | D (50 ≦ D < 60%) | A (90 ≦ A ≦ 100%) | E (E < 50%) | B (80 ≦ B < 90%)
14 | Cc1ccccc1CS(=O)(=O)c1nc2cc(-n3nc(C)n(C(F)F)c3=O)c(F)cc2s1 [Compound 43] | A (90 ≦ A ≦ 100%) | C (60 ≦ C < 80%) | C (60 ≦ C < 80%) | D (50 ≦ D < 60%) | D (50 ≦ D < 60%) | C (60 ≦ C < 80%)
15 | Cc1nn(-c2cc3nc(S(=O)(=O)Cc4cccc(F)c4)sc3cc2Cl)c(=O)n1C(F)F [Compound 44] | B (80 ≦ B < 90%) | C (60 ≦ C < 80%) | C (60 ≦ C < 80%) | C (60 ≦ C < 80%) | C (60 ≦ C < 80%) | B (80 ≦ B < 90%)
16 | Cc1nn(-c2cc3nc(S(=O)(=O)Cc4ccc(F)cc4F)sc3cc2Cl)c(=O)n1C(F)F [Compound 45] | A (90 ≦ A ≦ 100%) | B (80 ≦ B < 90%) | B (80 ≦ B < 90%) | A (90 ≦ A ≦ 100%) | E (E < 50%) | C (60 ≦ C < 80%)
17 | Cc1ccc([N+](=O)[O-])c(CS(=O)(=O)c2nc3cc(-n4nc(C)n(C(F)F)c4=O)c(F)cc3s2)c1 [Compound 46] | A (90 ≦ A ≦ 100%) | E (E < 50%) | C (60 ≦ C < 80%) | B (80 ≦ B < 90%) | D (50 ≦ D < 60%) | B (80 ≦ B < 90%)
18 | Cc1ccc(CS(=O)(=O)c2nc3cc(-n4nc(C)n(C(F)F)c4=O)c(F)cc3s2)cc1 [Compound 47] | A (90 ≦ A ≦ 100%) | A (90 ≦ A ≦ 100%) | C (60 ≦ C < 80%) | A (90 ≦ A ≦ 100%) | B (80 ≦ B < 90%) | C (60 ≦ C < 80%)

Reference: patent US7666890B2, “Synthesis and herbicidal activity of 1- (2-substituted benzo[d]thiazol-5-yl)-1H-1,2,4-triazol-5(4H)-one derivatives” (Huazhong Normal University, priority 2007, dated 2010)
